Reference: US20180000085A1, “USE OF PICOLINAMIDE COMPOUNDS WITH FUNGICIDAL ACTIVITY” (DOW AGROSCIENCES LLC, priority 2014, published 2018)

How the values were obtained:
Zymoseptoria tritici = assay: Leaf blotch of wheat (SEPTTR) disease control on wheat seedlings; format: in vivo; set-up: key to SEPTTR 1DP, HV activity at 100 ppm (% control rating) / SEPTTR 3DC, HV activity at 100 ppm (% control rating) / SEPTTR disease control, 1DP / SEPTTR disease control, 3DC / SEPTTR 1DP disease control rating, HV activity / SEPTTR 3DC disease control rating, HV activity / SEPTTR 3DC, LV activity at 125.1 g/H (% Control rating) / SEPTTR 1DP, LV activity at 125.1 g/H (% Control rating) / SEPTTR 1DP disease control rating, LV activity at 125.1 g/H / SEPTTR 3DC disease control rating, LV activity at 125.1 g/H / SEPTTR 3DC disease control rating, HV activity at 100 ppm / SEPTTR 1DP disease control rating, HV activity at 100 ppm / HV activity at 100 ppm SEPTTR 3DC (disease control rating) / HV activity at 100 ppm SEPTTR 1DP (disease control rating) / LV activity at 125.1 g/H SEPTTR 1DP (disease control rating) / LV activity at 125.1 g/H SEPTTR 3DC (disease control rating): A: > 80; B: ≤ 80; C: Not Tested; D: No Activity Observed in the Reported Assay; conditions: low volume application, 125.1 g/H; for SEPTTR 1DP, LV activity at 125.1 g/H (% Control rating): 1 Day Protectant; for SEPTTR 3DC, LV activity at 125.1 g/H (% Control rating): 3 Day Curative
Puccinia triticina = assay: Wheat brown rust (PUCCRT) disease control on wheat seedlings; format: in vivo; set-up: key to PUCCRT 3DC, HV activity at 100 ppm (% control rating) / PUCCRT disease control, 3DC / PUCCRT 1DP disease control rating, HV activity / PUCCRT 3DC disease control rating, HV activity / PUCCRT 3DC, LV activity at 125.1 g/H (% Control rating) / PUCCRT 1DP, LV activity at 125.1 g/H (% Control rating) / PUCCRT 3DC disease control rating, LV activity at 125.1 g/H / PUCCRT 1DP disease control rating, LV activity at 125.1 g/H / PUCCRT 3DC disease control rating, HV activity at 100 ppm / PUCCRT 1DP disease control rating, HV activity at 100 ppm / HV activity at 100 ppm PUCCRT 3DC (disease control rating) / LV activity at 125.1 g/H PUCCRT 1DP (disease control rating) / LV activity at 125.1 g/H PUCCRT 3DC (disease control rating): A: > 80; B: ≤ 80; C: Not Tested; D: No Activity Observed in the Reported Assay; conditions: low volume application, 125.1 g/H; for PUCCRT 1DP, LV activity at 125.1 g/H (% Control rating): 1 Day Protectant; for PUCCRT 3DC, LV activity at 125.1 g/H (% Control rating): 3 Day Curative

Row | Structure (SMILES) | SEPTTR 1DP, LV activity at 125.1 g/H (% Control rating) (Zymoseptoria tritici) | SEPTTR 3DC, LV activity at 125.1 g/H (% Control rating) (Zymoseptoria tritici) | PUCCRT 1DP, LV activity at 125.1 g/H (% Control rating) (Puccinia triticina) | PUCCRT 3DC, LV activity at 125.1 g/H (% Control rating) (Puccinia triticina)
1 | COc1ccnc(C(=O)NC(C)C(=O)OC(C)COC(=O)C(C)C)c1OCOC(C)=O (stereo not shown) [Cmpd 530] | B (≤ 80) | B (≤ 80) | D | D
2 | COc1ccnc(C(=O)NC(C)C(=O)OC(C)COC(=O)C(C)C)c1OCOC(=O)C(C)C (stereo not shown) [Cmpd 531] | D | B (≤ 80) | D | D
3 | COc1ccnc(C(=O)NC(C)C(=O)OC(C)COC(=O)C(C)C)c1OC(C)=O (stereo not shown) [Cmpd 532] | B (≤ 80) | A (> 80) | D | D
4 | COc1ccnc(C(=O)NC(C)C(=O)OC(C)COCC(C)C)c1OCOC(C)=O (stereo not shown) [Cmpd 533] | D | A (> 80) | D | A (> 80)
5 | COc1ccnc(C(=O)NC(C)C(=O)OC(C)COC2CCCC2)c1OCOC(C)=O (stereo not shown) [Cmpd 534] | D | A (> 80) | D | A (> 80)
6 | COc1ccnc(C(=O)NC(C)C(=O)OC(C)COC(C)(C)C)c1OCOC(C)=O (stereo not shown) [Cmpd 535] | D | B (≤ 80) | D | B (≤ 80)
7 | COc1ccnc(C(=O)NC(C)C(=O)OC(C)COc2ccccc2)c1OC(=O)C1CC1 (stereo not shown) [Cmpd 541] | B (≤ 80) | B (≤ 80) | D | D
8 | COc1ccnc(C(=O)N[C@@H](C)C(=O)O[C@@H](C)[C@H](Oc2ccc(Cl)cc2Cl)C2CCCC2)c1OCOC(C)=O [Cmpd 551] | A (> 80) | B (≤ 80) | A (> 80) | B (≤ 80)
9 | CCC(CC)[C@@H](OCC1CC1)[C@H](C)OC(=O)[C@H](C)NC(=O)c1nccc(OC)c1OC(C)=O [Cmpd 555] | B (≤ 80) | A (> 80) | A (> 80) | A (> 80)
10 | COc1ccnc(C(=O)N[C@@H](C)C(=O)O[C@@H](C)[C@H](Oc2ccc(Cl)cc2Cl)C(C)C)c1OCOC(C)=O [Cmpd 562] | D | A (> 80) | A (> 80) | A (> 80)
11 | COc1ccnc(C(=O)N[C@H](C(=O)O[C@@H](C)[C@H](Oc2cccc(Cl)c2)C(C)C)C(C)C)c1OCOC(C)=O [Cmpd 564] | A (> 80) | A (> 80) | A (> 80) | A (> 80)
12 | COc1ccnc(C(=O)N[C@@H](CC(C)C)C(=O)O[C@@H](C)[C@H](Oc2ccc(Cl)cc2Cl)C(C)C)c1OCOC(C)=O [Cmpd 565] | D | B (≤ 80) | B (≤ 80) | B (≤ 80)
13 | COc1ccnc(C(=O)N[C@@H](C)C(=O)O[C@@H](C)[C@H](Oc2ccc(Cl)cc2Cl)C(C)C)c1OC(C)=O [Cmpd 567] | D | A (> 80) | A (> 80) | A (> 80)
14 | COc1ccnc(C(=O)N[C@@H](CC(C)C)C(=O)O[C@@H](C)[C@H](Oc2ccc(Cl)cc2Cl)C(C)C)c1OC(C)=O [Cmpd 570] | D | D | D | D
15 | COc1ccnc(C(=O)N[C@@H](C)C(=O)O[C@@H](C)[C@H](Oc2cccc(Cl)c2)C(C)C)c1OCOC(=O)C(C)C [Cmpd 571] | B (≤ 80) | A (> 80) | A (> 80) | A (> 80)
16 | COc1ccnc(C(=O)N[C@@H](C)C(=O)O[C@@H](C)[C@H](Oc2ccc(Cl)cc2Cl)C(C)C)c1OCOC(=O)C(C)C [Cmpd 572] | B (≤ 80) | B (≤ 80) | A (> 80) | A (> 80)
17 | COc1ccnc(C(=O)N[C@@H](C)C(=O)O[C@@H](C)[C@H](Oc2ccc(Cl)cc2)C(C)C)c1OCOC(=O)C(C)C [Cmpd 573] | A (> 80) | A (> 80) | A (> 80) | A (> 80)
18 | COc1ccnc(C(=O)N[C@@H](Cc2ccccc2)C(=O)O[C@@H](C)[C@H](Oc2cccc(F)c2)c2ccccc2)c1OCOC(C)=O [Cmpd 576] | B (≤ 80) | D | A (> 80) | B (≤ 80)
19 | COc1ccnc(C(=O)N[C@@H](Cc2ccccc2)C(=O)O[C@@H](C)[C@H](Oc2cccc(F)c2)c2ccccc2)c1OC(C)=O [Cmpd 577] | B (≤ 80) | D | A (> 80) | B (≤ 80)
20 | COc1ccnc(C(=O)N[C@@H](C)C(=O)O[C@@H](C)[C@H](Oc2ccc(C(F)(F)F)cc2)c2ccccc2)c1OC(C)=O [Cmpd 583] | A (> 80) | A (> 80) | A (> 80) | B (≤ 80)
21 | COc1ccnc(C(=O)N[C@H](C(=O)O[C@@H](C)[C@H](Oc2ccc(C(F)(F)F)cc2)c2ccccc2)C(C)C)c1OCOC(C)=O [Cmpd 584] | A (> 80) | D | A (> 80) | B (≤ 80)
22 | COc1ccnc(C(=O)N[C@H](C(=O)O[C@@H](C)[C@H](Oc2ccc(C(F)(F)F)cc2)c2ccccc2)C(C)C)c1OC(C)=O [Cmpd 585] | A (> 80) | D | A (> 80) | B (≤ 80)
